Test results as given in patent publication US20260262643A1, “HERBICIDAL BENZOXAZINES” (FMC CORPORATION, priority 2022, published 2026).

What was measured:
[1] = system: barnyardgrass; test: Test B flooded paddy test; format: in vivo, Echinochloa crus-galli; conditions: 250 g ai/ha, Flood, 13 days, 0 to 100 scale (0 no effect, 100 complete control)
How it was run: (§1)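 Flooded to 3 cm at treatment time, 2-leaf plants got the test compound applied straight into the paddy water. They then stayed under constant flood in a greenhouse for 13 days. Ratings used a 0 to 100 visual scale.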

[2] = system: kochia; test: Test A postemergence; format: in vivo, Bassia scoparia
How it was run: (§2)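 Greenhouse pot test, 10 days. Compound (non-phytotoxic solvent, surfactant) sprayed on soil at seeding or on seedlings at one- to two-leaf stage. Visual injury rated 0–100 against untreated plants.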

[3] = system: blackgrass; test: Test A postemergence; format: in vivo, Alopecurus myosuroides
How it was run: as §2

[4] = system: ryegrass, Italian; test: Test A preemergence; format: in vivo, Lolium multiflorum
How it was run: as §2

[5] = system: ragweed; test: Test A preemergence; format: in vivo, Ambrosia artemisiifolia
How it was run: as §2

[6] = system: blackgrass; test: Test A preemergence; format: in vivo, Alopecurus myosuroides
How it was run: as §2

[7] = system: ragweed; test: Test A postemergence; format: in vivo, Ambrosia artemisiifolia
How it was run: as §2

[8] = system: wheat; test: Test A preemergence; format: in vivo, Triticum aestivum
How it was run: as §2

[9] = system: rice; test: Test B flooded paddy test; format: in vivo, Oryza sativa; conditions: 250 g ai/ha, Flood, 13 days, 0 to 100 scale (0 no effect, 100 complete control)
How it was run: as §1

[10] = system: goosegrass; test: Test A preemergence; format: in vivo, Eleusine indica
How it was run: as §2

[11] = system: ryegrass, Italian; test: Test A postemergence; format: in vivo, Lolium multiflorum
How it was run: as §2

[12] = system: horseweed; test: Test A postemergence; format: in vivo, Erigeron canadensis
How it was run: as §2

[13] = system: soybean; test: Test A postemergence; format: in vivo, Glycine max
How it was run: as §2

[14] = system: wheat; test: Test A postemergence; format: in vivo, Triticum aestivum
How it was run: as §2

[15] = system: soybean; test: Test A preemergence; format: in vivo, Glycine max
How it was run: as §2

[16] = system: foxtail, giant; test: Test A preemergence; format: in vivo, Setaria faberi
How it was run: as §2

[17] = system: pigweed, palmer; test: Test A preemergence; format: in vivo, Amaranthus palmeri
How it was run: as §2

[18] = system: corn; test: Test A postemergence; format: in vivo, Zea mays
How it was run: as §2

[19] = system: galium; test: Test A postemergence; format: in vivo, Galium aparine
How it was run: as §2

[20] = system: pigweed, palmer; test: Test A postemergence; format: in vivo, Amaranthus palmeri
How it was run: as §2

[21] = system: oat, wild; test: Test A preemergence; format: in vivo, Avena fatua
How it was run: as §2

[22] = system: sedge, umbrella; test: Test B flooded paddy test; format: in vivo, Cyperus difformis; conditions: 250 g ai/ha, Flood, 13 days, 0 to 100 scale (0 no effect, 100 complete control)
How it was run: as §1

[23] = system: oat, wild; test: Test A postemergence; format: in vivo, Avena fatua
How it was run: as §2

[24] = system: corn; test: Test A preemergence; format: in vivo, Zea mays
How it was run: as §2

[25] = system: kochia; test: Test A preemergence; format: in vivo, Bassia scoparia
How it was run: as §2

[26] = system: ducksalad; test: Test B flooded paddy test; format: in vivo, Heteranthera limosa; conditions: 250 g ai/ha, Flood, 13 days, 0 to 100 scale (0 no effect, 100 complete control)
How it was run: as §1

[27] = system: goosegrass; test: Test A postemergence; format: in vivo, Eleusine indica
How it was run: as §2

[28] = system: foxtail, giant; test: Test A postemergence; format: in vivo, Setaria faberi
How it was run: as §2

[29] = 125 g ai/ha, postemergence, 10 days, visual injury, 0 to 100 scale (0 no effect, 100 complete control)
[30] = 500 g ai/ha, Postemergence, 0 to 100 scale
[31] = 125 g ai/ha, visual injury after 10 days, 0 to 100 scale, 0 is no effect, 100 is complete control
[32] = 500 g ai/ha, 0 to 100 scale (0 no effect, 100 complete control), 10 days

Cc1cccc2c1O[C@@H](C)CN2C(=O)c1cccc(-n2cnc(C(C)C)n2)c1 [Compound 55]
Plant response rating, Barnyardgrass [1]: 30
Plant response rating, Kochia [2, 29]: 80
Plant response rating, Kochia [2, 30]: 90
Plant response rating, Blackgrass [3, 29]: 60
Plant response rating, Blackgrass [3, 30]: 80
Plant response rating, Ryegrass, Italian [4, 31]: 80
Plant response rating, Ryegrass, Italian [4, 32]: 100
Plant response rating, Ragweed [5, 31]: 20
Plant response rating, Ragweed [5, 32]: 40
Plant response rating, Blackgrass [6, 31]: 80
Plant response rating, Blackgrass [6, 32]: 90
Plant response rating, Ragweed [7, 29]: 50
Plant response rating, Ragweed [7, 30]: 70
Plant response rating, Wheat [8, 31]: 40
Plant response rating, Wheat [8, 32]: 60
Plant response rating, Rice [9]: 0
Plant response rating, Goosegrass [10, 31]: 100
Plant response rating, Goosegrass [10, 32]: 100
Plant response rating, Ryegrass, Italian [11, 29]: 50
Plant response rating, Ryegrass, Italian [11, 30]: 100
Plant response rating, Horseweed [12, 29]: 0
Plant response rating, Horseweed [12, 30]: 30
Plant response rating, Soybean [13, 29]: 100
Plant response rating, Soybean [13, 30]: 100
Plant response rating, Wheat [14, 29]: 40
Plant response rating, Wheat [14, 30]: 60
Plant response rating, Soybean [15, 31]: 30
Plant response rating, Soybean [15, 32]: 100
Plant response rating, Foxtail, Giant [16, 31]: 100
Plant response rating, Foxtail, Giant [16, 32]: 100
Plant response rating, Pigweed, Palmer [17, 31]: 80
Plant response rating, Pigweed, Palmer [17, 32]: 90
Plant response rating, Corn [18, 29]: 40
Plant response rating, Corn [18, 30]: 80
Plant response rating, Galium [19, 29]: 100
Plant response rating, Galium [19, 30]: 100
Plant response rating, Pigweed, Palmer [20, 29]: 40
Plant response rating, Pigweed, Palmer [20, 30]: 60
Plant response rating, Oat, Wild [21, 31]: 70
Plant response rating, Oat, Wild [21, 32]: 90
Plant response rating, Sedge, Umbrella [22]: 95
Plant response rating, Oat, Wild [23, 29]: 40
Plant response rating, Oat, Wild [23, 30]: 80
Plant response rating, Corn [24, 31]: 0
Plant response rating, Corn [24, 32]: 30
Plant response rating, Kochia [25, 31]: 90
Plant response rating, Kochia [25, 32]: 100
Plant response rating, Ducksalad [26]: 75
Plant response rating, Goosegrass [27, 29]: 50
Plant response rating, Goosegrass [27, 30]: 90
Plant response rating, Foxtail, Giant [28, 29]: 100
Plant response rating, Foxtail, Giant [28, 30]: 100

Cc1cccc2c1O[C@@H](C)CN2C(=O)c1cccc(-n2cncn2)c1F [Compound 53]
Plant response rating, Barnyardgrass [1]: 0
Plant response rating, Kochia [2, 29]: 0
Plant response rating, Kochia [2, 30]: 10
Plant response rating, Blackgrass [3, 29]: 0
Plant response rating, Blackgrass [3, 30]: 20
Plant response rating, Ryegrass, Italian [4, 31]: 30
Plant response rating, Ryegrass, Italian [4, 32]: 70
Plant response rating, Ragweed [5, 31]: 0
Plant response rating, Ragweed [5, 32]: 0
Plant response rating, Blackgrass [6, 31]: 0
Plant response rating, Blackgrass [6, 32]: 0
Plant response rating, Ragweed [7, 29]: 0
Plant response rating, Ragweed [7, 30]: 0
Plant response rating, Wheat [8, 31]: 0
Plant response rating, Wheat [8, 32]: 10
Plant response rating, Rice [9]: 0
Plant response rating, Goosegrass [10, 31]: 0
Plant response rating, Goosegrass [10, 32]: 40
Plant response rating, Ryegrass, Italian [11, 29]: 0
Plant response rating, Ryegrass, Italian [11, 30]: 0
Plant response rating, Horseweed [12, 29]: 0
Plant response rating, Horseweed [12, 30]: 0
Plant response rating, Soybean [13, 29]: 20
Plant response rating, Soybean [13, 30]: 50
Plant response rating, Wheat [14, 29]: 0
Plant response rating, Wheat [14, 30]: 0
Plant response rating, Soybean [15, 31]: 0
Plant response rating, Soybean [15, 32]: 0
Plant response rating, Foxtail, Giant [16, 31]: 0
Plant response rating, Foxtail, Giant [16, 32]: 0
Plant response rating, Pigweed, Palmer [17, 31]: 0
Plant response rating, Pigweed, Palmer [17, 32]: 0
Plant response rating, Corn [18, 29]: 0
Plant response rating, Corn [18, 30]: 0
Plant response rating, Galium [19, 29]: 0
Plant response rating, Galium [19, 30]: 0
Plant response rating, Pigweed, Palmer [20, 29]: 0
Plant response rating, Pigweed, Palmer [20, 30]: 30
Plant response rating, Oat, Wild [21, 31]: 0
Plant response rating, Oat, Wild [21, 32]: 0
Plant response rating, Sedge, Umbrella [22]: 0
Plant response rating, Oat, Wild [23, 29]: 0
Plant response rating, Oat, Wild [23, 30]: 0
Plant response rating, Corn [24, 31]: 0
Plant response rating, Corn [24, 32]: 0
Plant response rating, Kochia [25, 31]: 0
Plant response rating, Kochia [25, 32]: 20
Plant response rating, Ducksalad [26]: 0
Plant response rating, Goosegrass [27, 29]: 20
Plant response rating, Goosegrass [27, 30]: 40
Plant response rating, Foxtail, Giant [28, 29]: 0
Plant response rating, Foxtail, Giant [28, 30]: 10
